biological target: T1, hCRTH2 (Homo sapiens, UniProt Q9Y5Y4); experiment: Radioligand binding assay ([3H]PGD2 competition)
T1 sequence (Q9Y5Y4 1-395): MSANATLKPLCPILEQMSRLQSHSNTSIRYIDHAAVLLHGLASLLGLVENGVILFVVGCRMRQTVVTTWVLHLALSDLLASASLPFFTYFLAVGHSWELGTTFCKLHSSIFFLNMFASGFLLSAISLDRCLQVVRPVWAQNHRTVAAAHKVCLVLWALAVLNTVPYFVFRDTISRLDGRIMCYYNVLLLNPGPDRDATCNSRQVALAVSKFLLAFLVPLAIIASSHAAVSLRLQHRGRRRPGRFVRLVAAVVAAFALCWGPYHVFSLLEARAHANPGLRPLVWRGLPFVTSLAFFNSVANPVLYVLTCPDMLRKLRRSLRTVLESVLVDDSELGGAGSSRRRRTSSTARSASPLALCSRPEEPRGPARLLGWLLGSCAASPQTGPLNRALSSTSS
Procedure: Radioligand binding assay. […] Competing ligands were diluted in dimethylsulfoxide (Me2SO) that was kept constant at 1% (v/v) of the final incubation volume. The reaction was initiated by the addition of 8-20 μg of membrane protein prepared from a HEK-hCRTH2 cell line. Total and non-specific binding were determined in the absence and the presence of 10 μM PGD2, respectively. Under these conditions, specific binding (total minus non-specific) of the radioligand to the receptor reached equilibrium within 50 min and was stable up to 180 min. The reaction was routinely conducted for 60 min at room temperature and terminated by rapid filtration through prewetted Unifilters GF/C (Packard), using a Tomtec MachIII semi-automated harvester (for HEK-hCRTH2). The filters were then washed with 4 ml of the same buffer and residual radioligand bound to the filter was determined by liquid scintillation counting following equilibration in 25 μl Ultima Gold F™ (Unifilter) (Packard).

| Ki | Compound |
| --- | --- |
| ≤ 5 nM | CN(C(=O)C1(c2ccc(Cl)cc2)CCCC1)[C@@H]1CCc2c(CC(=O)O)c3ccccc3n2C1 [Example 20, {(7R)-7-[{[1-(4-chlorophenyl)cyclopentyl]carbonyl}(methyl)amino]-6,7,8,9-tetrahydropyrido[1,2-a]indol-10-yl}acetic acid] |
| ≤ 5 nM | CC(C(=O)N(C)[C@@H]1CCc2c(CC(=O)O)c3ccccc3n2C1)c1ccccc1 (stereo partly drawn) [Example 30, ((7R)-7-{methyl [2-phenylpropanoyl]amino}-6,7,8,9-tetrahydropyrido[1,2-a]indol-10-yl)acetic acid] |
| 50 to 100 nM | CN(C(=O)Cc1ccc(F)cc1Br)[C@@H]1CCc2c(CC(=O)O)c3ccccc3n2C1 [Example 34, {(7R)-7-[[(2-bromo-4-fluorophenyl)acetyl](methyl)amino]-6,7,8,9-tetrahydropyrido[1,2-a]indol-10-yl}acetic acid] |
| ≤ 5 nM | CN(C(=O)C1(c2ccc(F)cc2)CC1(C)C)[C@@H]1CCc2c(CC(=O)O)c3ccccc3n2C1 (stereo partly drawn) [Example 35, {(7R)-7-[{[1-(4-fluorophenyl)-2,2-dimethylcyclopropyl]carbonyl}(methyl)amino]-6,7,8,9-tetrahydropyrido[1,2-a]indol-10-yl}acetic acid] |

More lines, now with the values behind:

| Compound | Ki |
| --- | --- |
| O=C(O)Cc1c2n(c3ccccc13)C[C@H](N(Cc1ccc(F)cc1)C(=O)Cc1ccc(F)cc1)CC2 [Example 3, ((7R)-7-{(4-fluorobenzyl)[(4-fluorophenyl)acetyl]amino}-6,7,8,9-tetrahydropyrido[1,2-a]indol-10-yl)acetic acid] | ≤ 5 nM |
| CN(C(=O)C(C)(C)Cc1ccccc1)[C@@H]1CCc2c(CC(=O)O)c3ccccc3n2C1 [Example 26, {(7R)-7-[(2,2-dimethyl-3-phenylpropanoyl)(methyl)amino]-6,7,8,9-tetrahydropyrido[1,2-a]indol-10-yl}acetic acid] | 5 to 10 nM |
| CN(C(=O)CCc1ccccc1)[C@@H]1CCc2c(CC(=O)O)c3ccccc3n2C1 [Example 29, {(7R)-7-[methyl(3-phenylpropanoyl)amino]-6,7,8,9-tetrahydropyrido[1,2-a]indol-10-yl}acetic acid] | 5 to 10 nM |
| COC(C(=O)N(C)[C@@H]1CCc2c(CC(=O)O)c3ccccc3n2C1)c1ccccc1 (stereo partly drawn) [Example 36, {(7R)-7-[[-2-methoxy-2-phenylacetyl](methyl)amino]-6,7,8,9-tetrahydropyrido[1,2-a]indol-10-yl}acetic acid] | 10 to 50 nM |
